Test results: patent US9963703B2, “Compositions and methods for treating pancreatic cancer” (Autotelic LLC, priority 2016, dated 2018)
In the oligonucleotide strings, read from the 5' end, every base follows the letter of its sugar. An asterisk marks phosphorothioate; unmarked linkages are phosphodiester. Other units and linkages are bracketed, terminal groups are in braces. A string of capitals states the bases alone. d = 2'-deoxy (DNA)

Test system: Patients With Advanced Tumors Known to Overproduce TGFβ2
Experiment: Phase I/II dose escalation study P-001, safety (MTD, DLT, adverse events)
Type: in vivo, human
Experimental: Over-expression of transforming growth factor-beta 2 (TGF-β2) is associated with poor prognosis and plays a key role for malignant progression of various tumors by inducing proliferation, metastasis, angiogenesis and immunosuppression. P-001 trial of trabedersen-Safety and Tolerability of AP 12009 (trabedersen), Administered I.V. in Patients With Advanced Tumors Known to Overproduce TGFβ2, was evaluated to determine if treatment with trabedersen primed the tumors to subsequent chemotherapy.
In the instant study, the primary objective was to determine the Maximum Tolerated Dose (MTD) and the Dose Limited Toxicity (DLT) of two cycles of trabedersen administered intravenously (i.v.) for either 7 days every other week (i.e. 7 days on/7 days off) or for 4 days every other week (4 days on/10 days off). The secondary objective included assessment of antitumor activity of trabedersen administered intravenously for either 7 days every other week (i.e. 7 days on/7 days off) or for 4 days every other week (4 days on/10 days off).
The escalation scheme of this study aimed to determinate the MTD of two cycles of trabedersen (so called ‘core study period’) administered as a continuous i.v. infusion for 7 days every other week (7-days-on/7-days-off) or for 4 days every other week (4-days-on/10-days-off).
In general, it was planned to enroll a cohort of at least 3 evaluable patients per treatment group. For each cohort, the safety data obtained until end of the core study period (period for DLT-assessment, Cycle 1 and Cycle 2) were assessed in an interim analysis and evaluated by a Data and Safety Monitoring Board (DSMB). […] If 2 of these 3 patients experienced a DLT, the number of evaluable patients for the subsequent treatment group was increased to 6 for further evaluation of toxicity. Patients who were withdrawn from the study due to adverse events (AEs) attributed to DLT by the treating clinician, were not replaced but were used to determine the MTD and to evaluate the safety of the study drug. If patients were withdrawn due to other reasons, they were replaced until the treatment group was complete.
The MTD was determined according to the following procedure: If 2 out of 3 patients of 1 cohort experienced a DLT, 3 more patients were enrolled in the same treatment group. If at least 1 of these additional 3 patients also met the toxicity criteria for a DLT, the MTD for two cycles was determined; otherwise the dose escalation was continued upon agreement with the DSMB. MTD for two cycles was then defined as the dose at which no more than 2 out of 3, or 2 out of 6 patients of the same treatment group experienced a DLT. This procedure was followed until the MTD was reached.
The safety population comprised of 61 patients, representing all patients for whom at least once a trabedersen infusion was started. According to the protocol, the MTD was determined according to the following procedure: if […] out of 3 patients of one cohort experience dose-limiting toxicity, 3 more patients were enrolled in the same treatment group. If at least 1 more patient of this second cohort met the toxicity criteria, MTD for two cycles has been determined (otherwise escalation was continued). MTD for two cycles was then defined as the dose at which no more than 2 out of 3 or 2 out of 6 patients of the same treatment group experienced DLT. […] In the case that 2 patients of the first cohort experienced DLTs that clearly indicated attainment of the MTD, the second cohort could also be omitted. The described procedure was pursued until the MTD is reached.

[1] = 240 mg/m^2/day, 7-days-on and 7-days-off schedule
[2] = 4-days-on and 10-days-off schedule
[3] = 4-days-on, 10-days off schedule (N = 44)
[4] = 7-days-on and 7-days-off schedule
[5] = 7-days-on, 7-days off schedule (N = 17)

## trabedersen: TGF-beta2 specific phosphorothioate antisense oligodeoxynucleotide with the sequence 5′-CGGCATGTCTATTTTGTA-3′ (SEQ ID No: 1) (antisense dC*dG*dG*dC*dA*dT*dG*dT*dC*dT*dA*dT*dT*dT*dT*dG*dT*dA)
140 mg/m^2/day, 4-days-on and 10-days-off schedule, one patient
  dose-limiting toxicity observed: Grade 3 upper gastrointestinal hemorrhage
[1]
  DLT: cases of Grade 3 maculopapular rash: 1
  DLT: cases of Grade 3 thrombocytopenia: 2
  number of patients who experienced a DLT: 3
[2]
  patients with TEAEs that led to treatment discontinuation, %: 15.9%
  patients with TEAEs that led to treatment discontinuation, number: 7
4-days-on and 10-days-off schedule, no MTD established, highest dose tested
  MTD: > 330 mg/m^2/day
[3]
  Any SAE: % of patients with SAE: 40.9%
  Any SAE: No. of SAEs: 28
  Any SAE: No. of patients with SAE: 18
  Ascites: No. of patients with SAE: 0
  Cancer Pain: % of patients with SAE: 4.5%
  Cancer Pain: No. of SAEs: 2
  Cancer Pain: No. of patients with SAE: 2
  Catheter related Infection: % of patients with SAE: 2.3%
  Catheter related Infection: No. of SAEs: 1
  Catheter related Infection: No. of patients with SAE: 1
  Cholangitis: % of patients with SAE: 6.8%
  Cholangitis: No. of SAEs: 3
  Cholangitis: No. of patients with SAE: 3
  Cholestasis: % of patients with SAE: 2.3%
  Cholestasis: No. of SAEs: 1
  Cholestasis: No. of patients with SAE: 1
  GI hemorrhage: % of patients with SAE: 2.3%
  GI hemorrhage: No. of SAEs: 2
  GI hemorrhage: No. of patients with SAE: 1
  Pneumonia: No. of patients with SAE: 0
  Upper GI hemorrhage: % of patients with SAE: 2.3%
  Upper GI hemorrhage: No. of SAEs: 1
  Upper GI hemorrhage: No. of patients with SAE: 1
[4]
  MTD: 160 mg/m^2/day
  patients with TEAEs that led to treatment discontinuation, %: 41.2%
  patients with TEAEs that led to treatment discontinuation, number: 7
[5]
  Any SAE: % of patients with SAE: 70.6%
  Any SAE: No. of SAEs: 28
  Any SAE: No. of patients with SAE: 12
  Ascites: % of patients with SAE: 17.6%
  Ascites: No. of SAEs: 3
  Ascites: No. of patients with SAE: 3
  Cancer Pain: No. of patients with SAE: 0
  Catheter related Infection: % of patients with SAE: 11.8%
  Catheter related Infection: No. of SAEs: 2
  Catheter related Infection: No. of patients with SAE: 2
  Cholangitis: % of patients with SAE: 5.9%
  Cholangitis: No. of SAEs: 1
  Cholangitis: No. of patients with SAE: 1
  Cholestasis: % of patients with SAE: 5.9%
  Cholestasis: No. of SAEs: 1
  Cholestasis: No. of patients with SAE: 1
  GI hemorrhage: % of patients with SAE: 11.8%
  GI hemorrhage: No. of SAEs: 3
  GI hemorrhage: No. of patients with SAE: 2
  Pneumonia: % of patients with SAE: 17.6%
  Pneumonia: No. of SAEs: 3
  Pneumonia: No. of patients with SAE: 3
  Upper GI hemorrhage: % of patients with SAE: 5.9%
  Upper GI hemorrhage: No. of SAEs: 1
  Upper GI hemorrhage: No. of patients with SAE: 1
4 days on and days off regimen (N=27), not reached at highest dose
  MTD: > 330 mg/m^2/d
7 days on and 7 days off regimen (N=11)
  MTD: 160 mg/m^2/d
Total (N = 61)
  Any SAE: % of patients with SAE: 49.2%
  Any SAE: No. of SAEs: 56
  Any SAE: No. of patients with SAE: 30
  Ascites: % of patients with SAE: 4.9%
  Ascites: No. of SAEs: 3
  Ascites: No. of patients with SAE: 3
  Cancer Pain: % of patients with SAE: 3.3%
  Cancer Pain: No. of SAEs: 2
  Cancer Pain: No. of patients with SAE: 2
  Catheter related Infection: % of patients with SAE: 4.9%
  Catheter related Infection: No. of SAEs: 3
  Catheter related Infection: No. of patients with SAE: 3
  Cholangitis: % of patients with SAE: 6.6%
  Cholangitis: No. of SAEs: 4
  Cholangitis: No. of patients with SAE: 4
  Cholestasis: % of patients with SAE: 3.3%
  Cholestasis: No. of SAEs: 2
  Cholestasis: No. of patients with SAE: 2
  GI hemorrhage: % of patients with SAE: 4.9%
  GI hemorrhage: No. of SAEs: 3
  GI hemorrhage: No. of patients with SAE: 3
  Pneumonia: % of patients with SAE: 4.9%
  Pneumonia: No. of SAEs: 3
  Pneumonia: No. of patients with SAE: 3
  Upper GI hemorrhage: % of patients with SAE: 3.3%
  Upper GI hemorrhage: No. of SAEs: 2
  Upper GI hemorrhage: No. of patients with SAE: 2
All cohorts, 2 pancreatic carcinoma, 2 colorectal cancer
  number of patients for whom a DLT was proclaimed: 4
All patients
  patients with TEAEs that led to treatment discontinuation, %: 23.0%
  patients with TEAEs that led to treatment discontinuation, number: 14
  total number of TEAEs that led to treatment discontinuation: 23
Colorectal cancer
  patients with TEAEs that led to treatment discontinuation, %: 40.0%
  patients with TEAEs that led to treatment discontinuation, number: 2
Initial 7-days-on and 7-days-off schedule
  daily dose of MTD: approx. 4 mg/kg/day
melanoma
  patients with TEAEs that led to treatment discontinuation, %: 15.8%
  patients with TEAEs that led to treatment discontinuation, number: 3
Pancreatic cancer
  patients with TEAEs that led to treatment discontinuation, %: 24.3%
  patients with TEAEs that led to treatment discontinuation, number: 9
